Where “and” joins values, the source holds several entries; their conditions need not be identical. Equal values may be shown once. Read-outs that look alike come from different tables or passages of the source.
What was measured:
[1] = system: PAMPA; conditions: calculated using Supplement Equation 1, UV detection
[2] = system: PAMPA
[3] = system: PAMPA; conditions: UV detection
[4] = system: PAMPA; remark: listed apart in the source
[5] = system: PAMPA; remark: listed apart in the source
[6] = system: PAMPA; remark: listed apart in the source
[7] = PAMPA, permeability assay across an artificial membrane; conditions: for Acceptor Concentration, Ave: after incubation
[8] = Papp (x 10^-6 cm/s) – ELSD Detection / [row 2], ELSD Detection
[9] = Papp (x 10^-6 cm/s) – ELSD Detection / [row 3], ELSD Detection
[10] = Papp (x 10^-6 cm/s) – ELSD Detection / [row 4], ELSD Detection
[11] = Papp (x 10^-6 cm/s) – ELSD Detection / [row 5], ELSD Detection
[12] = Papp (x 10^-6 cm/s) – ELSD Detection / [row 6], ELSD Detection
[13] = Papp (x 10^-6 cm/s) – ELSD Detection / [row 7], ELSD Detection
[14] = Papp (x 10^-6 cm/s) – ELSD Detection / [row 8], ELSD Detection
[15] = Papp (x 10^-6 cm/s) – ELSD Detection / [row 9], ELSD Detection
[16] = Papp (x 10^-6 cm/s) – ELSD Detection / [row 10], ELSD Detection
[17] = Papp (x 10^-6 cm/s) – UV Detection / [row 1], UV Detection
[18] = Papp (x 10^-6 cm/s) – UV Detection / [row 2], UV Detection
[19] = Papp (x 10^-6 cm/s) – UV Detection / [row 3], UV Detection
[20] = Papp (x 10^-6 cm/s) – UV Detection / [row 4], UV Detection
[21] = Papp (x 10^-6 cm/s) – UV Detection / [row 6], UV Detection
[22] = Papp (x 10^-6 cm/s) – UV Detection / [row 7], UV Detection
[23] = Papp (x 10^-6 cm/s) – UV Detection / [row 8], UV Detection
[24] = Papp (x 10^-6 cm/s) – UV Detection / [row 9], UV Detection
[25] = Papp (x 10^-6 cm/s) – UV Detection / [row 10], UV Detection
[26] = Acceptor Concentration (uM) – ELSD Detection / [row 1]
[27] = Acceptor Concentration (uM) – ELSD Detection / [row 2]
[28] = Acceptor Concentration (uM) – ELSD Detection / [row 3]
[29] = Acceptor Concentration (uM) – ELSD Detection / [row 4]
[30] = Acceptor Concentration (uM) – ELSD Detection / [row 5]
[31] = Acceptor Concentration (uM) – ELSD Detection / [row 6]
[32] = Acceptor Concentration (uM) – ELSD Detection / [row 7]
[33] = Acceptor Concentration (uM) – ELSD Detection / [row 8]
[34] = Acceptor Concentration (uM) – ELSD Detection / [row 9]
[35] = Acceptor Concentration (uM) – ELSD Detection / [row 10]
[36] = Acceptor Concentration (uM) – UV Detection / [row 1]
[37] = Acceptor Concentration (uM) – UV Detection / [row 2]
[38] = Acceptor Concentration (uM) – UV Detection / [row 4]
[39] = Acceptor Concentration (uM) – UV Detection / [row 5]
[40] = Acceptor Concentration (uM) – UV Detection / [row 6]
[41] = Acceptor Concentration (uM) – UV Detection / [row 7]
[42] = Acceptor Concentration (uM) – UV Detection / [row 8]
[43] = Acceptor Concentration (uM) – UV Detection / [row 9]
[44] = Acceptor Concentration (uM) – UV Detection / [row 10]

CCCCC[C@@H]1OC(=O)[C@@H](C)N(C)C(=O)[C@H](CCCCC)OC(=O)[C@@H](C)N(C)C(=O)[C@H](CCCCC)OC(=O)[C@@H](C)N(C)C(=O)[C@H](CCCCC)OC(=O)[C@@H](C)N(C)C(=O)[C@H](CCCCC)OC(=O)[C@@H](C)N(C)C1=O [Compound C1.5]
%T ([1]; Well 1 / %T, Well 1): 0.44% and 0.46%
%T ([1]; Well 2 / %T, Well 2): 0.42% and 0.43%
%T ([1]; Well 3 / %T, Well 3): 0.42% and 0.47%
%T ([1]; Well 4 / %T, Well 4): 0.39% and 0.47%
%T ([1]; Well 5 / %T, Well 5): 0.42% and 0.47%
Papp [2, 8]: 2.93 ×10⁻⁶ cm/s
Papp [2, 9]: 2.62 ×10⁻⁶ cm/s
Papp [2, 10]: 2.78 ×10⁻⁶ cm/s
Papp [2, 11]: 3.09 ×10⁻⁶ cm/s
Papp [2, 12]: 2.8 ×10⁻⁶ cm/s
Papp [2, 13]: 3.15 ×10⁻⁶ cm/s
Papp [2, 14]: 2.83 ×10⁻⁶ cm/s
Papp [2, 15]: 2.67 ×10⁻⁶ cm/s
Papp [2, 16]: 3.08 ×10⁻⁶ cm/s
Papp [2, 17]: 3.3 ×10⁻⁶ cm/s
Papp [2, 18]: 3.13 ×10⁻⁶ cm/s
Papp [2, 19]: 3.08 ×10⁻⁶ cm/s
Papp [2, 20]: 2.85 ×10⁻⁶ cm/s
Papp ([2]; Papp (x 10^-6 cm/s) – UV Detection / [row 5], UV Detection): 3.14 ×10⁻⁶ cm/s
Papp [2, 21]: 3.54 ×10⁻⁶ cm/s
Papp [2, 22]: 3.19 ×10⁻⁶ cm/s
Papp [2, 23]: 3.6 ×10⁻⁶ cm/s
Papp [2, 24]: 3.64 ×10⁻⁶ cm/s
Papp [2, 25]: 3.64 ×10⁻⁶ cm/s
% recovery ([3]; Well 2 / %R, Well 2): 86% and 90%
% recovery ([3]; Well 3 / %R, Well 3): 93% and 88%
% recovery ([3]; Well 5 / %R, Well 5): 88% and 87%
Acceptor Concentration [4, 26]: 67.5 µM
Acceptor Concentration [4, 27]: 63.9 µM
Acceptor Concentration [4, 28]: 64.8 µM
Acceptor Concentration [4, 29]: 62.3 µM
Acceptor Concentration [4, 30]: 65.1 µM
Acceptor Concentration [4, 31]: 65 µM
Acceptor Concentration [4, 32]: 68.5 µM
Acceptor Concentration [4, 33]: 67.7 µM
Acceptor Concentration [4, 34]: 61.3 µM
Acceptor Concentration [4, 35]: 66.1 µM
Acceptor Concentration [4, 36]: 66.6 µM
Acceptor Concentration [4, 37]: 60.4 µM
Acceptor Concentration [4, 38]: 56.7 µM
Acceptor Concentration [4, 39]: 61.9 µM
Acceptor Concentration [4, 40]: 71.3 µM
Acceptor Concentration [4, 41]: 64.8 µM
Acceptor Concentration [4, 42]: 71.7 µM
Acceptor Concentration [4, 43]: 73.6 µM
Acceptor Concentration [4, 44]: 71.6 µM
donor concentration after incubation ([5]; Well 1 / [donor]): 379 µM and 372 µM
donor concentration after incubation ([5]; Well 2 / [donor]): 370 µM and 384 µM
donor concentration after incubation ([5]; Well 3 / [donor]): 400 µM and 367 µM
donor concentration after incubation ([5]; Well 4 / [donor]): 389 µM and 372 µM
donor concentration after incubation ([5]; Well 5 / [donor]): 376 µM and 362 µM
acceptor concentration after incubation ([6]; Well 5 / [acc]): 61.8 µM

CCCCC[C@@H]1OC(=O)[C@@H](C)N(C)C(=O)[C@H](CCCCC)OC(=O)[C@@H](C)N(C)C(=O)[C@H](CCCCC)OC(=O)[C@@H](C)N(C)C(=O)[C@H](CCCCC)OC(=O)[C@@H](C)N(C)C(=O)[C@H](CCCCC)OC(=O)[C@@H](C)N(C)C(=O)[C@H](CCCCC)OC(=O)[C@@H](C)N(C)C1=O [Compound C1.6]
%T ([1]; Well 1 / %T, Well 1): 0.63% and 0.58%
%T ([1]; Well 2 / %T, Well 2): 0.65% and 0.63%
%T ([1]; Well 3 / %T, Well 3): 0.63% and 0.59%
%T ([1]; Well 4 / %T, Well 4): 0.66% and 0.6%
%T ([1]; Well 5 / %T, Well 5): 0.62% and 0.63%
Papp [2, 8]: 1.94 ×10⁻⁶ cm/s
Papp [2, 9]: 1.99 ×10⁻⁶ cm/s
Papp [2, 10]: 1.87 ×10⁻⁶ cm/s
Papp [2, 11]: 1.89 ×10⁻⁶ cm/s
Papp [2, 12]: 1.93 ×10⁻⁶ cm/s
Papp [2, 13]: 1.88 ×10⁻⁶ cm/s
Papp [2, 14]: 1.91 ×10⁻⁶ cm/s
Papp [2, 15]: 1.8 ×10⁻⁶ cm/s
Papp [2, 16]: 1.92 ×10⁻⁶ cm/s
Papp [2, 17]: 1.95 ×10⁻⁶ cm/s
Papp [2, 18]: 1.93 ×10⁻⁶ cm/s
Papp [2, 19]: 1.95 ×10⁻⁶ cm/s
Papp [2, 20]: 1.81 ×10⁻⁶ cm/s
Papp [2, 21]: 2.59 ×10⁻⁶ cm/s
Papp [2, 22]: 1.89 ×10⁻⁶ cm/s
Papp [2, 23]: 1.91 ×10⁻⁶ cm/s
Papp [2, 24]: 2.19 ×10⁻⁶ cm/s
Papp [2, 25]: 1.87 ×10⁻⁶ cm/s
% recovery ([3]; Well 1 / %R, Well 1): 89% and 86%
% recovery ([3]; Well 2 / %R, Well 2): 88% and 97%
% recovery ([3]; Well 3 / %R, Well 3): 80% and 98%
% recovery ([3]; Well 4 / %R, Well 4): 82% and 97%
% recovery ([3]; Well 5 / %R, Well 5): 89% and 91%
Acceptor Concentration [4, 26]: 27.2 µM
Acceptor Concentration [4, 27]: 30 µM
Acceptor Concentration [4, 28]: 25.6 µM
Acceptor Concentration [4, 29]: 29.3 µM
Acceptor Concentration [4, 30]: 27.1 µM
Acceptor Concentration [4, 31]: 45.6 µM
Acceptor Concentration [4, 32]: 39.3 µM
Acceptor Concentration [4, 33]: 42.2 µM
Acceptor Concentration [4, 34]: 25.8 µM
Acceptor Concentration [4, 35]: 46.7 µM
Acceptor Concentration [4, 36]: 38.6 µM
Acceptor Concentration [4, 37]: 37.6 µM
Acceptor Concentration ([4]; Acceptor Concentration (uM) – UV Detection / [row 3]): 33.9 µM
Acceptor Concentration [4, 38]: 31.6 µM
Acceptor Concentration [4, 39]: 37 µM
Acceptor Concentration [4, 40]: 51.1 µM
Acceptor Concentration [4, 41]: 41.4 µM
Acceptor Concentration [4, 42]: 41.9 µM
Acceptor Concentration [4, 43]: 49 µM
Acceptor Concentration [4, 44]: 37.4 µM
donor concentration after incubation ([5]; Well 1 / [donor]): 407 µM and 377 µM
donor concentration after incubation ([5]; Well 2 / [donor]): 404 µM and 445 µM
donor concentration after incubation ([5]; Well 3 / [donor]): 368 µM and 446 µM
donor concentration after incubation ([5]; Well 4 / [donor]): 379 µM and 438 µM
donor concentration after incubation ([5]; Well 5 / [donor]): 406 µM and 417 µM
acceptor concentration after incubation ([6]; Well 1 / [acc]): 38.6 µM and 51.1 µM
acceptor concentration after incubation ([6]; Well 2 / [acc]): 37.6 µM and 41.4 µM
acceptor concentration after incubation ([6]; Well 3 / [acc]): 41.9 µM
acceptor concentration after incubation ([6]; Well 4 / [acc]): 31.6 µM and 49.1 µM
acceptor concentration after incubation ([6]; Well 5 / [acc]): 37.4 µM
Diffusion (%) ([7]; PAMPA percent diffusion, C0 500 uM): 6.78% and 7% and 6.8 ± 1.7%
Recovery (%) ([7]; PAMPA, (acceptor + donor)/total analyte, C0 500 uM): 90%
Papp at 500 uM ([7]; PAMPA, Ave, ELSD detection, C0 500 uM): 1.9 ×10⁻⁶ cm/s
Papp at 500 uM ([7]; PAMPA, ratio-based method, mean ± SD, C0 500 uM, UV detection): 2 ± 0.23 ×10⁻⁶ cm/s
recovery at 500 uM ([7]; PAMPA, Recovery (%), PAMPA, (acceptor + donor)/total analyte, C0 500 uM): 89.7%
Acceptor Concentration, Ave ([7]; PAMPA, ELSD detection, C0 500 uM): 33.9 µM
Acceptor Concentration, Ave ([7]; PAMPA, UV detection, C0 500 uM): 39.95 µM
Δ % diffusion ([7]; increase: difference between percent diffusion of macrocycle vs linear counterpart): ↑2%
